# Test results published in ChEMBL document CHEMBL1649268, “Comparative in vitro activity profile of oritavancin against recent gram-positive clinical isolates” (2009).
# What was measured:
# Staphylococcus aureus [1] = experiment: Antimicrobial activity against Staphylococcus aureus clinical isolates assessed as percent susceptible isolates by broth microdilution method; type: functional
# [2] = Antimicrobial activity against erythromycin-nonsusceptible Streptococcus Group C clinical isolates by broth microdilution method; type: functional; settings: Streptococcus sp. 'group C'
# Streptococcus agalactiae [3] = experiment: Antimicrobial activity against Streptococcus agalactiae clinical isolates assessed as percent susceptible isolates by broth microdilution method; type: functional
# Streptococcus pneumoniae [4] = experiment: Antimicrobial activity against Streptococcus pneumoniae clinical isolates by broth microdilution method; type: functional
# [5] = tested on: Staphylococcus haemolyticus; experiment: Antimicrobial activity against oxacillin-resistant Staphylococcus haemolyticus clinical isolates assessed as percent susceptible isolates by broth microdilution method; type: functional
# [6] = Antimicrobial activity against erythromycin-susceptible Streptococcus Group G clinical isolates by broth microdilution method; type: functional; settings: Streptococcus sp. 'group G'
# Streptococcus pneumoniae [7] = experiment: Antimicrobial activity against penicillin-resistant Streptococcus pneumoniae clinical isolates assessed as percent susceptible isolates by broth microdilution method; type: functional
# Staphylococcus aureus [8] = experiment: Antimicrobial activity against oxacillin-resistant Staphylococcus aureus clinical isolates assessed as resistant isolates by broth microdilution method; type: functional
# [9] = Antimicrobial activity against Streptococcus Group G clinical isolates by broth microdilution method; type: functional; settings: Streptococcus sp. 'group G'
# [10] = tested on: Staphylococcus haemolyticus; experiment: Antimicrobial activity against oxacillin-susceptible Staphylococcus haemolyticus clinical isolates by broth microdilution method; type: functional
# Streptococcus agalactiae [11] = experiment: Antimicrobial activity against Streptococcus agalactiae clinical isolates assessed as resistant isolates by broth microdilution method; type: functional
# Streptococcus pyogenes [12] = experiment: Antimicrobial activity against erythromycin-susceptible Streptococcus pyogenes clinical isolates by broth microdilution method; type: functional
# Streptococcus [13] = experiment: Antimicrobial activity against Streptococcus Group F clinical isolates by broth microdilution method; type: functional
# [14] = Antimicrobial activity against erythromycin-nonsusceptible Streptococcus Group C clinical isolates assessed as percent susceptible isolates by broth microdilution method; type: functional, Streptococcus sp. 'group C'
# [15] = tested on: Staphylococcus epidermidis; experiment: Antimicrobial activity against Staphylococcus epidermidis clinical isolates by broth microdilution method; type: functional
# Streptococcus pyogenes [16] = experiment: Antimicrobial activity against Streptococcus pyogenes clinical isolates assessed as resistant isolates by broth microdilution method; type: functional
# [17] = tested on: Staphylococcus epidermidis; experiment: Antimicrobial activity against Staphylococcus epidermidis clinical isolates assessed as resistant isolates by broth microdilution method; type: functional
# [18] = tested on: Staphylococcus epidermidis; experiment: Antimicrobial activity against Staphylococcus epidermidis clinical isolates assessed as percent susceptible isolates by broth microdilution method; type: functional
# Streptococcus [19] = experiment: Antimicrobial activity against erythromycin-nonsusceptible Streptococcus Group F clinical isolates by broth microdilution method; type: functional
# Streptococcus pneumoniae [20] = experiment: Antimicrobial activity against penicillin-resistant Streptococcus pneumoniae clinical isolates assessed as resistant isolates by broth microdilution method; type: functional
# Streptococcus pyogenes [21] = experiment: Antimicrobial activity against Streptococcus pyogenes clinical isolates by broth microdilution method; type: functional
# Streptococcus [22] = experiment: Antimicrobial activity against erythromycin-susceptible Streptococcus Group F clinical isolates by broth microdilution method; type: functional
# Streptococcus pneumoniae [23] = experiment: Antimicrobial activity against Streptococcus pneumoniae clinical isolates assessed as percent susceptible isolates by broth microdilution method; type: functional
# [24] = tested on: Staphylococcus haemolyticus; experiment: Antimicrobial activity against Staphylococcus haemolyticus clinical isolates assessed as resistant isolates by broth microdilution method; type: functional
# Streptococcus pyogenes [25] = experiment: Antimicrobial activity against erythromycin-nonsusceptible Streptococcus pyogenes clinical isolates by broth microdilution method; type: functional
# [26] = tested on: Staphylococcus haemolyticus; experiment: Antimicrobial activity against Staphylococcus haemolyticus clinical isolates by broth microdilution method; type: functional
# Staphylococcus aureus [27] = experiment: Antimicrobial activity against oxacillin-susceptible Staphylococcus aureus clinical isolates by broth microdilution method; type: functional
# Streptococcus agalactiae [28] = experiment: Antimicrobial activity against erythromycin-nonsusceptible Streptococcus agalactiae clinical isolates assessed as percent susceptible isolates by broth microdilution method; type: functional
# [29] = tested on: Staphylococcus haemolyticus; experiment: Antimicrobial activity against oxacillin-susceptible Staphylococcus haemolyticus clinical isolates assessed as resistant isolates by broth microdilution method; type: functional
# [30] = tested on: Staphylococcus epidermidis; experiment: Antimicrobial activity against oxacillin-susceptible Staphylococcus epidermidis clinical isolates assessed as resistant isolates by broth microdilution method; type: functional
# [31] = tested on: Staphylococcus haemolyticus; experiment: Antimicrobial activity against Staphylococcus haemolyticus clinical isolates assessed as percent susceptible isolates by broth microdilution method; type: functional
# [32] = Antimicrobial activity against erythromycin-nonsusceptible Streptococcus Group G clinical isolates by broth microdilution method; type: functional; settings: Streptococcus sp. 'group G'
# Streptococcus pneumoniae [33] = experiment: Antimicrobial activity against penicillin-intermediate Streptococcus pneumoniae clinical isolates by broth microdilution method; type: functional
# [34] = tested on: Staphylococcus epidermidis; experiment: Antimicrobial activity against oxacillin-susceptible Staphylococcus epidermidis clinical isolates by broth microdilution method; type: functional
# [35] = tested on: Staphylococcus haemolyticus; experiment: Antimicrobial activity against oxacillin-resistant Staphylococcus haemolyticus clinical isolates assessed as resistant isolates by broth microdilution method; type: functional
# Streptococcus pneumoniae [36] = experiment: Antimicrobial activity against penicillin-resistant Streptococcus pneumoniae clinical isolates by broth microdilution method; type: functional
# Streptococcus agalactiae [37] = experiment: Antimicrobial activity against erythromycin-susceptible Streptococcus agalactiae clinical isolates by broth microdilution method; type: functional
# Staphylococcus aureus [38] = experiment: Antimicrobial activity against oxacillin-susceptible Staphylococcus aureus clinical isolates assessed as percent susceptible isolates by broth microdilution method; type: functional
# [39] = Antimicrobial activity against erythromycin-susceptible Streptococcus Group C clinical isolates assessed as percent susceptible isolates by broth microdilution method; type: functional, Streptococcus sp. 'group C'
# Streptococcus pneumoniae [40] = experiment: Antimicrobial activity against Streptococcus pneumoniae clinical isolates assessed as resistant isolates by broth microdilution method; type: functional
# Staphylococcus aureus [41] = experiment: Antimicrobial activity against oxacillin-resistant Staphylococcus aureus clinical isolates assessed as percent susceptible isolates by broth microdilution method; type: functional
# Streptococcus pyogenes [42] = experiment: Antimicrobial activity against erythromycin-susceptible Streptococcus pyogenes clinical isolates assessed as percent susceptible isolates by broth microdilution method; type: functional
# Streptococcus agalactiae [43] = experiment: Antimicrobial activity against erythromycin-susceptible Streptococcus agalactiae clinical isolates assessed as percent susceptible isolates by broth microdilution method; type: functional
# [44] = tested on: Staphylococcus haemolyticus; experiment: Antimicrobial activity against oxacillin-susceptible Staphylococcus haemolyticus clinical isolates assessed as percent susceptible isolates by broth microdilution method; type: functional
# [45] = tested on: Staphylococcus epidermidis; experiment: Antimicrobial activity against oxacillin-resistant Staphylococcus epidermidis clinical isolates assessed as resistant isolates by broth microdilution method; type: functional
# Streptococcus pyogenes [46] = experiment: Antimicrobial activity against erythromycin-nonsusceptible Streptococcus pyogenes clinical isolates assessed as percent susceptible isolates by broth microdilution method; type: functional
# [47] = Antimicrobial activity against erythromycin-susceptible Streptococcus Group C clinical isolates by broth microdilution method; type: functional; settings: Streptococcus sp. 'group C'
# Streptococcus pyogenes [48] = experiment: Antimicrobial activity against erythromycin-nonsusceptible Streptococcus pyogenes clinical isolates assessed as resistant isolates by broth microdilution method; type: functional
# Streptococcus pneumoniae [49] = experiment: Antimicrobial activity against penicillin-susceptible Streptococcus pneumoniae clinical isolates assessed as percent susceptible isolates by broth microdilution method; type: functional
# Streptococcus pneumoniae [50] = experiment: Antimicrobial activity against penicillin-susceptible Streptococcus pneumoniae clinical isolates assessed as resistant isolates by broth microdilution method; type: functional
# [51] = tested on: Staphylococcus epidermidis; experiment: Antimicrobial activity against oxacillin-susceptible Staphylococcus epidermidis clinical isolates assessed as percent susceptible isolates by broth microdilution method; type: functional
# Streptococcus agalactiae [52] = experiment: Antimicrobial activity against erythromycin-nonsusceptible Streptococcus agalactiae clinical isolates assessed as resistant isolates by broth microdilution method; type: functional
# Staphylococcus aureus [53] = experiment: Antimicrobial activity against Staphylococcus aureus clinical isolates by broth microdilution method; type: functional
# [54] = tested on: Staphylococcus epidermidis; experiment: Antimicrobial activity against oxacillin-resistant Staphylococcus epidermidis clinical isolates assessed as percent susceptible isolates by broth microdilution method; type: functional
# Streptococcus agalactiae [55] = experiment: Antimicrobial activity against erythromycin-nonsusceptible Streptococcus agalactiae clinical isolates by broth microdilution method; type: functional
# Staphylococcus aureus [56] = experiment: Antimicrobial activity against oxacillin-susceptible Staphylococcus aureus clinical isolates assessed as resistant isolates by broth microdilution method; type: functional
# [57] = Antimicrobial activity against erythromycin-susceptible Streptococcus Group G clinical isolates assessed as percent susceptible isolates by broth microdilution method; type: functional, Streptococcus sp. 'group G'
# [58] = tested on: Staphylococcus epidermidis; experiment: Antimicrobial activity against oxacillin-resistant Staphylococcus epidermidis clinical isolates by broth microdilution method; type: functional
# Streptococcus pyogenes [59] = experiment: Antimicrobial activity against Streptococcus pyogenes clinical isolates assessed as percent susceptible isolates by broth microdilution method; type: functional
# [60] = Antimicrobial activity against erythromycin-nonsusceptible Streptococcus Group G clinical isolates assessed as percent susceptible isolates by broth microdilution method; type: functional, Streptococcus sp. 'group G'
# Streptococcus pneumoniae [61] = experiment: Antimicrobial activity against penicillin-intermediate Streptococcus pneumoniae clinical isolates assessed as percent susceptible isolates by broth microdilution method; type: functional
# Staphylococcus aureus [62] = experiment: Antimicrobial activity against Staphylococcus aureus clinical isolates assessed as resistant isolates by broth microdilution method; type: functional
# [63] = Antimicrobial activity against Streptococcus Group C clinical isolates by broth microdilution method; type: functional; settings: Streptococcus sp. 'group C'
# Streptococcus agalactiae [64] = experiment: Antimicrobial activity against Streptococcus agalactiae clinical isolates by broth microdilution method; type: functional
# Streptococcus pneumoniae [65] = experiment: Antimicrobial activity against penicillin-intermediate Streptococcus pneumoniae clinical isolates assessed as resistant isolates by broth microdilution method; type: functional
# Streptococcus pneumoniae [66] = experiment: Antimicrobial activity against penicillin-susceptible Streptococcus pneumoniae clinical isolates by broth microdilution method; type: functional
smiles,measurement,setting,value
CC[C@H]1OC(=O)[C@H](C)[C@@H](O[C@H]2C[C@@](C)(OC)[C@@H](O)[C@H](C)O2)[C@H](C)[C@@H](O[C@@H]2O[C@H](C)C[C@H](N(C)C)[C@H]2O)[C@](C)(O)C[C@@H](C)C(=O)[C@H](C)[C@@H](O)[C@]1(C)O [ERYTHROMYCIN],Activity,Staphylococcus aureus [1],32.6%
same,MIC90,[2],> 2 µg/mL
same,Activity,Streptococcus agalactiae [3],70.6%
same,MIC90,Streptococcus pneumoniae [4],> 2 µg/mL
same,Activity,[5],11.7%
same,MIC90,[6],0.06 µg/mL
same,Activity,Streptococcus pneumoniae [7],14.9%
same,Percent resistant isolates,Staphylococcus aureus [8],90.5%
same,MIC90,[9],2 µg/mL
same,MIC90,[10],> 8 µg/mL
same,Activity,Streptococcus agalactiae [11],28.7%
same,MIC90,Streptococcus pyogenes [12],0.06 µg/mL
same,MIC90,Streptococcus [13],2 µg/mL
same,Activity,[14],0%
same,MIC90,[15],> 8 µg/mL
same,Activity,Streptococcus pyogenes [16],13.6%
same,Percent of isolates resistant,[17],67.2%
same,Activity,[18],32.2%
same,MIC90,Streptococcus [19],> 2 µg/mL
same,Percent of isolates resistant,Streptococcus pneumoniae [20],84.5%
same,MIC90,Streptococcus pyogenes [21],> 2 µg/mL
same,MIC90,Streptococcus [22],0.06 µg/mL
same,Activity,Streptococcus pneumoniae [23],67.3%
same,Resistant isolates,[24],78.4%
same,MIC90,Streptococcus pyogenes [25],> 2 µg/mL
same,MIC90,[26],> 8 µg/mL
same,MIC90,Staphylococcus aureus [27],> 8 µg/mL
same,Activity,Streptococcus agalactiae [28],0%
same,Activity,[29],51.4%
same,Percent of isolates resistant,[30],45.4%
same,Activity,[31],21.6%
same,MIC90,[32],> 2 µg/mL
same,MIC90,Streptococcus pneumoniae [33],> 2 µg/mL
same,MIC90,[34],> 8 µg/mL
same,Activity,[35],88.3%
same,MIC,Streptococcus pneumoniae [36],> 0.03 µg/mL
same,MIC90,Streptococcus agalactiae [37],0.06 µg/mL
same,Activity,Staphylococcus aureus [38],60.7%
same,Activity,[39],100%
same,Resistant isolates,Streptococcus pneumoniae [40],32.4%
same,Activity,Staphylococcus aureus [41],8.4%
same,Activity,Streptococcus pyogenes [42],100%
same,Activity,Streptococcus agalactiae [43],100%
same,Activity,[44],48.6%
same,Percent of isolates resistant,[45],75.3%
same,Activity,Streptococcus pyogenes [46],0%
same,MIC90,[47],0.06 µg/mL
same,Activity,Streptococcus pyogenes [48],99.2%
same,Activity,Streptococcus pneumoniae [49],88.1%
same,Percent of isolates resistant,Streptococcus pneumoniae [50],11.6%
same,Activity,[51],53.8%
same,Activity,Streptococcus agalactiae [52],97.5%
same,MIC90,Staphylococcus aureus [53],> 8 µg/mL
same,Activity,[54],24.1%
same,MIC90,Streptococcus agalactiae [55],> 2 µg/mL
same,Percent of isolates resistant,Staphylococcus aureus [56],35.9%
same,Activity,[57],100%
same,MIC,[58],≥ 0.12 µg/mL
same,Activity,Streptococcus pyogenes [59],86.3%
same,Activity,[60],0%
same,Activity,Streptococcus pneumoniae [61],41.2%
same,Percent resistant isolates,Staphylococcus aureus [62],65.3%
same,MIC90,[63],2 µg/mL
same,MIC90,Streptococcus agalactiae [64],> 2 µg/mL
same,Percent of isolates resistant,Streptococcus pneumoniae [65],58.8%
same,MIC90,Streptococcus pneumoniae [66],> 2 µg/mL
